Values joined by “and” are separate entries in the source; they are usually repeats but may differ in a detail not shown here. Equal entries are not always repeated.
Legend:
[1] = biological target: T1, Shaker KV channel M356R/A359R/W454A (Drosophila melanogaster, UniProt P08510, A359R/DEL6-46/M356R/W454A); assay: Two-electrode voltage clamp in Xenopus oocytes: 2R motif/W454A; assay type: cell-based
T1 construct: expressed in transfected cells; host or cells: Xenopus laevis oocytes (RNA injection)
Excerpt: (§1) The Shaker H4 channel (GenBank accession no. NM_167595.3; [Kamb et al., 1987]), with removed N-type inactivation due to a Δ6-46 deletion (ShH4IR, in Bluescript II KS(+) plasmid; [Hoshi et al., 1990]), is referred to as the WT Shaker KV channel. Addition of two positively charged arginines (M356R/A359R) at the extracellular top of the voltage sensor increases the effect of charged lipophilic compounds ([Ottosson et al., 2014], [2015], [2017]). […] However, for the resin-acid derivatives studied in the present investigation, R362 reduced the effect. Therefore, we specifically refer to the two added arginines just outside S4 (M356R/A359R) as the 2R motif. Mutations were introduced with site-directed mutagenesis and verified with sequencing as described previously ([Börjesson et al., 2010]). RNA injection and oocyte handling were performed as before ([Börjesson et al., 2010]; [Ottosson et al., 2015]). All animal experiments were approved by the Linköping’s local Animal Care and Use Committee.
Electrophysiological experiments were made 1–6 d after RNA injection. K^+ currents were measured with the two-electrode voltage-clamp technique (GeneClamp 500B amplifier; Axon Instruments) as described previously ([Ottosson et al., 2015]; [Silverå Ejneby et al., 2018]). The amplifier’s leak compensation was used, and the currents were low-pass filtered at 5 kHz. The control solution contained (in mM) 88 NaCl, 1 KCl, 15 HEPES, 0.4 CaCl2, and 0.8 MgCl2, and pH was set with NaOH. All experiments were made at room temperature (20°C–23°C). The holding potential was set to −80 mV (or −100 mV if the mutant was not fully closed at −80 mV).
Stock solutions were stored at −20°C and diluted in control solution just before experiments. The test solution was added to the oocyte bath manually with a syringe. […] To make sure all Wu50 molecules were negatively charged, the pH of the control solution was set to 9.0 before the experiments. This pH change had only small effects on channel kinetics and the G(V) relation.
(§2) The conductance, G(V), was calculated as G(V)=I/(V−VK), (1) where I is the steady-state current measured at the end of each test-voltage sweep (100 ms after onset; Clampfit 10.5; Molecular Devices), V is the absolute membrane voltage, and VK is the reversal potential for K^+ ions (set to −80 mV). […] The resin-acid–induced G(V) shift was calculated as V1/2 (compound) − V1/2 (control). The relative change in GMAX was calculated as GMAX (compound) / GMAX (control). The concentration dependence for the G(V) shifts was calculated as ΔV= ΔVMAX/(1 +EC50/c), (3) where ΔV is the voltage shift, ΔVMAX is the voltage shift at saturating concentration, c is the concentration of the tested compound, and EC50 is the concentration at which half-maximum response occurs.

Shaker KV channel W454A = biological target: T2, Shaker KV channel W454A (Drosophila melanogaster, UniProt P08510, DEL6-46/W454A); assay: Two-electrode voltage clamp in Xenopus oocytes: W454A; assay type: cell-based; conditions: 100 μM, pH 9.0, W454A
T2 construct: expressed in transfected cells; host or cells: Xenopus laevis oocytes (RNA injection)
Excerpt: as §1
(§3) Electrophysiological experiments were made 1–6 d after RNA injection. K^+ currents were measured with the two-electrode voltage-clamp technique (GeneClamp 500B amplifier; Axon Instruments) as described previously ([Ottosson et al., 2015]; [Silverå Ejneby et al., 2018]). […]
as §2

Shaker KV channel R362Q = biological target: T3, Shaker KV channel R362Q (Drosophila melanogaster, UniProt P08510, DEL6-46/R362Q); assay: Two-electrode voltage clamp in Xenopus oocytes: R362Q; assay type: cell-based; conditions: 100 μM, pH 9.0, R362Q
T3 construct: expressed in transfected cells; host or cells: Xenopus laevis oocytes (RNA injection)
Excerpt: as §1, §3, §2

[2] = biological target: T4, Shaker KV channel R362Q/W454A/F416A (Drosophila melanogaster, UniProt P08510, DEL6-46/F416A/R362Q/W454A); assay: Two-electrode voltage clamp in Xenopus oocytes: R362Q/W454A/F416A; assay type: cell-based; conditions: 100 μM
T4 construct: expressed in transfected cells; host or cells: Xenopus laevis oocytes (RNA injection)
Excerpt: as §1, §3, §2

[3] = biological target: T5, Shaker KV channel R362Q/R365Q (Drosophila melanogaster, UniProt P08510, DEL6-46/R362Q/R365Q); assay: Two-electrode voltage clamp in Xenopus oocytes: R362Q/R365Q; assay type: cell-based; conditions: 100 μM, pH 9.0, R362Q/R365Q
T5 construct: expressed in transfected cells; host or cells: Xenopus laevis oocytes (RNA injection)
Excerpt: as §1, §3, §2

[4] = biological target: T6, Shaker KV channel R362Q/R365Q/W454A (Drosophila melanogaster, UniProt P08510, DEL6-46/R362Q/R365Q/W454A); assay: Two-electrode voltage clamp in Xenopus oocytes: R362Q/R365Q/W454A; assay type: cell-based; conditions: 100 μM, pH 9.0, R362Q/R365Q/W454A
T6 construct: expressed in transfected cells; host or cells: Xenopus laevis oocytes (RNA injection)
Excerpt: as §1, with “Mutations were introduced with site-directed mutagenesis and verified with sequencing as described previously ([Börjesson et al., 2010]). RNA injection and oocyte handling were performed as before ([Börjesson et al., 2010]; [Ottosson et al., 2015]). All animal experiments were approved by the Linköping’s local Animal Care and Use Committee.” left out
as §3
(§4) The conductance, G(V), was calculated as G(V)=I/(V−VK), (1) where I is the steady-state current measured at the end of each test-voltage sweep (100 ms after onset; Clampfit 10.5; Molecular Devices), V is the absolute membrane voltage, and VK is the reversal potential for K^+ ions (set to −80 mV). […] The resin-acid–induced G(V) shift was calculated as V1/2 (compound) − V1/2 (control). The relative change in GMAX was calculated as GMAX (compound) / GMAX (control). […]

[5] = biological target: T7, Shaker KV channel R362Q/R365Q/W454A/F280I (Drosophila melanogaster, UniProt P08510, DEL6-46/F280I/R362Q/R365Q/W454A); assay: Two-electrode voltage clamp in Xenopus oocytes: R362Q/R365Q/W454A/F280I; assay type: cell-based; conditions: 100 μM, pH 9.0, R362Q/R365Q/W454A/F280I
T7 construct: expressed in transfected cells; host or cells: Xenopus laevis oocytes (RNA injection)
Excerpt: as §1, with “Mutations were introduced with site-directed mutagenesis and verified with sequencing as described previously ([Börjesson et al., 2010]). RNA injection and oocyte handling were performed as before ([Börjesson et al., 2010]; [Ottosson et al., 2015]). All animal experiments were approved by the Linköping’s local Animal Care and Use Committee.” left out
as §3, §4

[6] = test system: Shaker KV channel binding sites (S3/S4, S4/pore, residual); assay: Additive model of site contributions to the G(V) shift (least squares fit); parameters: species or system Drosophila melanogaster
Excerpt: We also considered a reduced dataset of five mutants for Wu50 to make the comparison between the two compounds equitable (Table S1).
The G(V) shift for each mutant was expressed as a sum of contribution from the various sites: ΔVmodel=ΔVS3/S4+ΔVS4/pore+ΔVResidual, (4) where ΔVS3/S4 is the G(V) shift due to compound binding to the S3/S4 site, ΔVS4/pore is the G(V) shift due to compound binding to the S4/pore site, and ΔVResidual is the G(V) shift due to compound binding to other sites, including the top-VSD site.
Following the assumptions based on observations made using MD simulations, ΔVS3/S4 was set to 0 if the 2R motif was missing (i.e., in the WT channel), ΔVS4/pore could adopt one of four values depending on the type of mutation (R362/W454 = WT configuration, R362Q, W454A, or R362Q/W454A), and ΔVResidual was assumed to be the same for all mutants.
The model further assumed that there is a residual effect that can be due to binding to the VSD-top site or to any other unidentified site and that the contributions due to binding to the S3/S4 site and the S4/pore site depend upon mutations at this site.

[7] = 100 μM, pH 9.0, M356R/A359R/W454A

T2 sequence (P08510 other isoform, or with tags, fused parts or gaps DEL6-46/W454A): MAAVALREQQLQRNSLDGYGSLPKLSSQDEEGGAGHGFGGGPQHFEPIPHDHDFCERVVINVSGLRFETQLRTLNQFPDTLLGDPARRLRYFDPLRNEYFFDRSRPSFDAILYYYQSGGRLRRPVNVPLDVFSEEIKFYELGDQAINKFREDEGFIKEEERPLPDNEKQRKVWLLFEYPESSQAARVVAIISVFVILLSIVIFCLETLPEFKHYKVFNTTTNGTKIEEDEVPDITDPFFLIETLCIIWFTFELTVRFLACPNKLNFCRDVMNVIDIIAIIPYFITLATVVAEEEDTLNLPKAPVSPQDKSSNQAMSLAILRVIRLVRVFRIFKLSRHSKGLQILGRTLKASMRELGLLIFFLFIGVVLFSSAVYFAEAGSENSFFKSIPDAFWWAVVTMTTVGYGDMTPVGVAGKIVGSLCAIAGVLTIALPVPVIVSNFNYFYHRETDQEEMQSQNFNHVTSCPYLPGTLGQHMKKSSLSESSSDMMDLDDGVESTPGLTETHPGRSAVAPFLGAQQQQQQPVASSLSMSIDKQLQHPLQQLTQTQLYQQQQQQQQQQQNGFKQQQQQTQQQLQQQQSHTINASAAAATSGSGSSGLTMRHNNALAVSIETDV
T6 sequence (P08510 with tags, fused parts or gaps DEL6-46/R362Q/R365Q/W454A): as the sequence (P08510 other isoform, or with tags, fused parts or gaps DEL6-46/W454A) above, with R321Q, R324Q counted along it
T5 sequence (P08510 other isoform, or with tags, fused parts or gaps DEL6-46/R362Q/R365Q): as the sequence (P08510 other isoform, or with tags, fused parts or gaps DEL6-46/W454A) above, with R321Q, R324Q, A413W counted along it
T3 sequence (P08510 other isoform, or with tags, fused parts or gaps DEL6-46/R362Q): as the sequence (P08510 other isoform, or with tags, fused parts or gaps DEL6-46/W454A) above, with R321Q, A413W counted along it
T1 sequence (P08510 with tags, fused parts or gaps DEL6-46/M356R/A359R/W454A): as the sequence (P08510 other isoform, or with tags, fused parts or gaps DEL6-46/W454A) above, with M315R, A318R counted along it
T4 sequence (P08510 other isoform, or with tags, fused parts or gaps DEL6-46/R362Q/F416A/W454A): as the sequence (P08510 other isoform, or with tags, fused parts or gaps DEL6-46/W454A) above, with R321Q, F375A counted along it
T7 sequence (P08510 other isoform, or with tags, fused parts or gaps DEL6-46/F280I/R362Q/R365Q/W454A): as the sequence (P08510 other isoform, or with tags, fused parts or gaps DEL6-46/W454A) above, with F239I, R321Q, R324Q counted along it

Compound: C[C@@]1(C(=O)O)CCC[C@]2(C)c3cc(Cl)c(Cl)c(Cl)c3CC[C@@H]12 [Wu50]
- EC50 [1]: 27.9 ± 9.2 µM
- GMAX (rel.) [1, 7]: 1.28 rel.
- ΔVG(V) (G(V) shift) [1, 7]: -39.6 mV
- ΔVMAX (maximum G(V) shift) ([1]; 2R motif/W454A, pH 9.0, concentration-response): −62.3 ± 6.5 mV
- GMAX (rel.) (Shaker KV channel W454A): 0.56 rel.
- ΔVG(V) (G(V) shift) (Shaker KV channel W454A): −8.1 ± 0.4 mV and -8.1 mV
- GMAX (rel.) (Shaker KV channel R362Q): 1.25 rel.
- ΔVG(V) (G(V) shift) (Shaker KV channel R362Q): −49.6 ± 1.2 mV and -49.6 mV
- GMAX (rel.) ([2]; pH 9.0, R362Q/W454A/F416A): 0.17 rel.
- Reduction of GMAX ([2]; R362Q/W454A/F416A, pH 9.0): 83%
- GMAX (rel.) [3]: 0.55 rel.
- ΔVG(V) (G(V) shift) [3]: −25.5 ± 4.6 mV and -25.5 mV
- GMAX (rel.) [4]: 0.57 rel.
- ΔVG(V) (G(V) shift) [4]: −24.7 ± 3.0 mV and -24.7 mV
- GMAX (rel.) [5]: 0.05 rel.
- ΔVS3/S4 (contribution of the S3/S4 site in the presence of the 2R mutations) ([6]; eight mutants): −17 mV
- ΔVS4/pore, R362Q configuration ([6]; eight mutants): −34 mV
- ΔVS4/pore, R362Q/W454A configuration ([6]; eight mutants): −31 mV
- ΔVS4/pore, WT S4/pore site ([6]; eight mutants): −15 mV
- ΔVS3/S4 (contribution of the S3/S4 site in the presence of the 2R mutations) ([6]; five mutants): −10 mV
- ΔVS4/pore, R362Q configuration ([6]; five mutants): −37 mV
- ΔVS4/pore, WT S4/pore site ([6]; five mutants): −18 mV
- ΔVResidual (contribution of other sites to the G(V) shift) ([6]; five mutants (Wu50 constrained to be the same as for eight mutants)): −10 mV
- ΔVS4/pore, W454A configuration ([6]; no clear difference between five-mutants and eight-mutants datasets): +2 to −6 mV

Reference: publication PMC7944402, “Resin-acid derivatives bind to multiple sites on the voltage-sensor domain of the Shaker potassium channel” (The Journal of General Physiology, 2021)
